Results on 36 molecules are retold here after patent US8071581B2, “Triazolopyridazine protein kinase modulators” (SGX Pharmaceuticals, Inc., priority 2006, dated 2011).

The subject of one assay is GTL16. Kind of assay: GTL16 cell assay (EC50). Type of assay: cell-based. The conditions noted are these: Homo sapiens, GTL 16; Table 2. The procedure: Compounds were tested in the following assays in duplicate. 96-well XTT assay: Cells were grown in growth media containing various concentrations of compounds (duplicates) on a 96-well flat bottom plate for 72 hours at 37° C. in 5% CO2. The starting cell number was 5000 cells per well and volume was 120 μl. At the end of the 72-hour incubation, 40 μl of XTT labeling mixture (50:1 solution of sodium 3′-[1-(phenylaminocarbonyl)-3,4-tetrazolium]-bis(4-methoxy-6-nitro) benzene sulfonic acid hydrate and Electron-coupling reagent: PMS (N-methyl dibenzopyrazine methyl sulfate) were added to each well of the plate. After an additional 2-6 hours […] with a spectrophotometer.

In assay [1] the target is MET kinase (c-MET), kinase domain of human Met (Homo sapiens, UniProt P08581). Nature of the assay: MET luminescence-based enzyme assay (Kinase-Glo). In general terms: Kinase-Glo reads ATP consumption through a luciferase reaction.
MET kinase (c-MET), kinase domain of human Met, sequence (P08581 1078-1345 limits assumed): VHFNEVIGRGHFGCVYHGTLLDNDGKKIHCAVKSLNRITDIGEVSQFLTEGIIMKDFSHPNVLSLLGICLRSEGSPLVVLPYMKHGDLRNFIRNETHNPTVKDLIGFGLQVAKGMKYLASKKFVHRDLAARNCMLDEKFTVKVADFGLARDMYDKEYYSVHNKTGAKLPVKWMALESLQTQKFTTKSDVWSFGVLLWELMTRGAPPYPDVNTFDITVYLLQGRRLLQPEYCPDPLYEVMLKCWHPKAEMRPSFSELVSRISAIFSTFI

What is called EC50 is the midpoint of the concentration-response curve. Higher therefore signals a less potent agent. By IC50 is commonly meant the concentration that gives 50% inhibition. For `Cc1ccc2nnc(Cc3ccc4ncc(-c5cnc[nH]5)cc4c3)n2n1` [compound 142, 3-(1H-Imidazol-4-yl)-6-(6-methyl-[1,2,4]triazolo[4,3-b]pyridazin-3-ylmethyl)-quinoline], the EC50 with GTL16 is 100 to 1000 nM. For the same molecule, in assay [1], the IC50 is 100 to 1000 nM.

Regarding `CCC(=O)Cn1cc(-c2cnc3ccc(Cc4nnc5ccc(C)nn45)cc3c2)cn1` [compound 143], the EC50 in the assay with GTL16 is less than 100 nM. This molecule yielded a half-inhibitory concentration (IC50) in assay [1] of less than 100 nM.

Take `Cc1ccc2nnc(Cc3ccc4ncc(-c5cnn(CCO)c5)cc4c3)n2n1` [compound 144, 2-{4-[6-(6-Methyl-[1,2,4]triazolo[4,3-b]pyridazin-3-ylmethyl)-quinolin-3-yl]pyrazol-1-yl}-ethanol]: in the assay with GTL16, the EC50 is 100 to 1000 nM. Also, the IC50 in assay [1] was less than 100 nM.

In the assay with GTL16, `Cc1ccc2nnc(Cc3c(F)cc4ncc(-c5cnn(C)c5)cc4c3F)n2n1` [compound 145, 5,7-Difluoro-3-(1-methyl-1H-pyrazol-4-yl)-6-(6-methyl-[1,2,4]triazolo[4,3b]pyridazin-3-ylmethyl)-quinoline] registered a 50% effective concentration (EC50) of less than 100 nM. Moreover, the IC50 in assay [1] was less than 100 nM.

In the assay on GTL16, `Cc1ccc2nnc(Cc3c(F)cc4ncc(-c5cnn(CCN6CCOCC6)c5)cc4c3F)n2n1` [compound 146] gave an EC50 of less than 100 nM. The molecule further displayed an IC50 in assay [1] of less than 100 nM.

In the assay with GTL16, `COCCn1cc(-c2cnc3ccc(Cc4nnc5ccc(C)nn45)cc3c2)cn1` [compound 147] showed an EC50 of less than 100 nM. The same molecule displayed an IC50 in assay [1] of less than 100 nM.

`Cc1ccc2nnc(Cc3ccc4ncc(-c5cnn(CCC#N)c5)cc4c3)n2n1` [compound 148] yielded an EC50 in the assay with GTL16 of less than 100 nM. Further, the half-maximal inhibitory concentration (IC50) in assay [1] is less than 100 nM.

`Cc1ccc2nnc(Cc3ccc4ncc(-c5cnn(CC(N)=O)c5)cc4c3)n2n1` [compound 149, 2-{4-[6-(6-Methyl-[1,2,4]triazolo[4,3-b]pyridazin-3-ylmethyl)-quinolin-3-yl]-pyrazol-1-yl}-acetamide]: in the assay on GTL16, the EC50 lay in the range of 1000 to 10000 nM. In addition, the IC50 in assay [1] is less than 100 nM.

Molecule `Cc1ccc2nnc(Cc3c(F)cc4ncc(-c5cnn(CC(=O)O)c5)cc4c3F)n2n1` [compound 151] displayed a 50% effective concentration (EC50) in the assay on GTL16 of 1000 to 10000 nM. The molecule also gave an IC50 in assay [1] of less than 100 nM.

In turn, `Cc1ccc2nnc(Cc3ccc4ncc(-c5cnn(C6CNC6)c5)cc4c3)n2n1` [compound 153] returned an EC50 in the assay on GTL16 of 100 to 1000 nM. In assay [1], the IC50 is less than 100 nM.

The molecule `Cc1ccc2nnc(Cc3ccc4ncc(-c5cnn(CCC(N)=O)c5)cc4c3)n2n1` [compound 154] registered an EC50 in the assay on GTL16 of 100 to 1000 nM. This molecule yielded an IC50 in assay [1] of less than 100 nM.

Take `Cc1ccc2nnc(Cc3ccc4ncc(-c5cnn(CC6CNC6)c5)cc4c3)n2n1` [compound 155, 3-(1-Azetidin-3-ylmethyl-1H-pyrazol-4-yl)-6-(6-methyl-[1,2,4]triazolo[4,3-b]pyridazin-3-ylmethyl)-quinoline]: the half-maximal effective concentration (EC50) with GTL16 was in the range of 100 to 1000 nM. The molecule further had an IC50 in assay [1] of less than 100 nM.

`CCc1ccc2nnc(Cc3ccc4ncc(-c5cnn(C)c5)cc4c3)n2n1` [compound 157, 6-(6-Ethyl-[1,2,4]triazolo[4,3-b]pyridazin-3-ylmethyl)-3-(1-methyl-1H-pyrazol-4-yl)-quinoline] displayed an EC50 with GTL16 of less than 100 nM. For the same molecule, in assay [1], the IC50 is less than 100 nM.

`Cc1ccc2nnc(Cc3cc4cc(-c5cnn(C)c5)cnc4cc3F)n2n1` [compound 158] displayed an EC50 in the assay with GTL16 of less than 100 nM. Further, in assay [1], the IC50 is less than 100 nM.

`CN(C)c1ccc2nnc(Cc3ccc4ncc(-c5cnn(C)c5)cc4c3)n2n1` [compound 159, Dimethyl-{3-[3-(1-methyl-1H-pyrazol-4-yl)-quinolin-6-ylmethyl]-[1,2,4]triazolo[4,3-b]pyridazin-6-yl}-amine] gave an EC50 in the assay on GTL16 of less than 100 nM. This molecule also had an IC50 in assay [1] of less than 100 nM.

For the molecule `CNc1ccc2nnc(Cc3ccc4ncc(-c5cnn(C)c5)cc4c3)n2n1` [compound 160], the EC50 in the assay with GTL16 was less than 100 nM. Moreover, the IC50 in assay [1] is less than 100 nM.

`Cn1cc(-c2cnc3ccc(Cc4nnc5ccc(N)nn45)cc3c2)cn1` [compound 161] registered an EC50 in the assay with GTL16 of less than 100 nM. For the same molecule, the IC50 in assay [1] was less than 100 nM.

Molecule `CCn1cc(-c2cnc3ccc(Cc4nnc5ccc(C)nn45)cc3c2)cn1` [compound 162] returned a half-maximal effective concentration (EC50) in the assay on GTL16 of less than 100 nM. The molecule further displayed an IC50 in assay [1] of less than 100 nM.

The molecule `CCCn1cc(-c2cnc3ccc(Cc4nnc5ccc(C)nn45)cc3c2)cn1` [compound 163] came in with an EC50 in the assay with GTL16 of less than 100 nM. The molecule also yielded an IC50 in assay [1] of less than 100 nM.

Regarding `Cc1ccc2nnc(Cc3ccc4ncc(-c5cnn(C6(C(=O)O)CCC6)c5)cc4c3)n2n1` [compound 164], the EC50 with GTL16 is 1000 to 10000 nM. In assay [1], this molecule gave an IC50 of less than 100 nM.

For `CCc1ccc2nnc(Cc3cc4cc(-c5cnn(C)c5)cnc4cc3F)n2n1` [compound 165], the EC50 in the assay on GTL16 was less than 100 nM. In assay [1], this molecule registered an IC50 of less than 100 nM.

In the assay on GTL16, `CCc1ccc2nnc(Cc3c(F)cc4ncc(-c5cnn(C)c5)cc4c3F)n2n1` [compound 166, 6-(6-Ethyl-[1,2,4]triazolo[4,3-b]pyridazin-3-ylmethyl)-5,7-difluoro-3-(1-methyl-1H-pyrazol-4-yl)-quinoline] showed an EC50 of less than 100 nM. Moreover, the half-maximal inhibitory concentration (IC50) in assay [1] was less than 100 nM.

`Cn1cc(-c2cnc3cc(F)c(Cc4nnc5cccnn45)cc3c2)cn1` [compound 167]: in the assay on GTL16, the EC50 lay in the range of 10000 to 50000 nM. For the same molecule, the IC50 in assay [1] was less than 100 nM.

Molecule `Cc1ccc2nnc(Cc3ccc4ncc(-c5cnn(CCN(C)C)c5)cc4c3)n2n1` [compound 168] gave an EC50 in the assay on GTL16 of less than 100 nM. The IC50 in assay [1] was less than 100 nM.

In the assay on GTL16, `Cc1ccc2nnc(Cc3ccc4ncc(-c5cnn(CC6CN(C(=O)OC(C)(C)C)C6)c5)cc4c3)n2n1` [compound 169] displayed an EC50 of less than 100 nM. This molecule also returned an IC50 in assay [1] of less than 100 nM.

`Cc1ccc2nnc(Cc3ccc4ncc(-c5cnn(CCN6CCCC6)c5)cc4c3)n2n1` [compound 170] registered an EC50 in the assay on GTL16 of less than 100 nM. This molecule yielded an IC50 in assay [1] of less than 100 nM.

`CCN1CC(n2cc(-c3cnc4ccc(Cc5nnc6ccc(C)nn56)cc4c3)cn2)C1` [compound 171, 3-[1-(1-Ethyl-azetidin-3-yl)-1H-pyrazol-4-yl]-6-(6-methyl-[1,2,4]triazolo[4,3-b]pyridazin-3-ylmethyl)-quinoline] had an EC50 in the assay with GTL16 of less than 100 nM. This molecule came in with a concentration for half-maximal inhibition (IC50) in assay [1] of less than 100 nM.

Take `Cc1ccc2nnc(Cc3ccc4ncc(-c5cnn(CC6CN(S(C)(=O)=O)C6)c5)cc4c3)n2n1` [compound 172, 3-[1-(1-Methanesulfonyl-azetidin-3-ylmethyl)-1H-pyrazol-4-yl]-6-(6-methyl-[1,2,4]triazolo[4,3-b]pyridazin-3-ylmethyl)-quinoline]: the EC50 in the assay on GTL16 was in the range of 100 to 1000 nM. The molecule also registered an IC50 in assay [1] of less than 100 nM.

For the molecule `CCN(CC)CCn1cc(-c2cnc3ccc(Cc4nnc5ccc(C)nn45)cc3c2)cn1` [compound 173], the concentration for a half-maximal effect (EC50) with GTL16 is less than 100 nM. The molecule further gave an IC50 in assay [1] of less than 100 nM.

In the assay with GTL16, `Cn1cc(-c2cnc3cc(F)c(Cc4nnc5cccnn45)c(F)c3c2)cn1` [compound 174] had an EC50 of 100 to 1000 nM. Moreover, in assay [1], the IC50 was less than 100 nM.

`CC(=O)N1CC(n2cc(-c3cnc4ccc(Cc5nnc6ccc(C)nn56)cc4c3)cn2)C1` [compound 175, 1-(3-{4-[6-(6-Methyl-[1,2,4]triazolo[4,3-b]pyridazin-3-ylmethyl)-quinolin-3-yl]-pyrazol-1-yl}-azetidin-1-yl)-ethanone] had a half-maximal effective concentration (EC50) in the assay with GTL16 of 100 to 1000 nM. This molecule returned an IC50 in assay [1] of less than 100 nM.

In the assay with GTL16, `Cc1ccc2nnc(Cc3c[nH]c4ncc(-c5cnn(C)c5)cc34)n2n1` [compound 177, 6-Methyl-3-[5-(1-methyl-1H-pyrazol-4-yl)-1H-pyrrolo[2,3-b]pyridine-3-ylmethyl]-[1,2,4]triazolo[4,3-b]pyridazine] displayed an EC50 of 100 to 1000 nM. For the same molecule, the 50% inhibitory concentration (IC50) in assay [1] is less than 100 nM.

The molecule `Cn1cc(-c2cnc3ccc(Cc4nnc5nccnn45)cc3c2)cn1` [compound 179, 3-(1-Methyl-1H-pyrazol-4-yl)-6-[1,2,4]triazolo[4,3-b][1,2,4]triazin-3-ylmethyl-quinoline] showed a concentration for a half-maximal effect (EC50) in the assay with GTL16 of less than 100 nM. The IC50 in assay [1] was less than 100 nM.

`CCN1CC(Cn2cc(-c3cnc4ccc(Cc5nnc6ccc(C)nn56)cc4c3)cn2)C1` [compound 180] yielded an EC50 in the assay with GTL16 of less than 100 nM. This molecule showed a 50% inhibitory concentration (IC50) in assay [1] of less than 100 nM.

As to `CC(=O)N1CC(Cn2cc(-c3cnc4ccc(Cc5nnc6ccc(C)nn56)cc4c3)cn2)C1` [compound 181], the EC50 with GTL16 was 100 to 1000 nM. The molecule further registered an IC50 in assay [1] of less than 100 nM.

Molecule `Cc1ccc2nnc(Cc3ccc4ncc(-c5cnn(C6CN(S(C)(=O)=O)C6)c5)cc4c3)n2n1` [compound 182] came in with an EC50 in the assay with GTL16 of 100 to 1000 nM. The same molecule returned a half-inhibitory concentration (IC50) in assay [1] of less than 100 nM.
